Literature values as cited in publication PMC9788431, “Combination of Docking-Based and Pharmacophore-Based Virtual Screening Identifies Novel Agonists That Target the Urotensin Receptor” (Molecules, 2022).
Values joined by “and” are separate entries in the source; they are usually repeats but may differ in a detail not shown here. Equal entries are not always repeated. Positions of bridges follow the written chain, without caps; N, C: chain ends. Non-standard residues stand in square brackets, D forms with d. Residues, ends and D or L forms follow the SMILES beside them. Phe(4-I) = N[C@@H](Cc1ccc(I)cc1)C(=O)O; dTle = CC(C)(C)[C@@H](N)C(=O)O

What was measured:
[1] = molecular target: T1, UT receptor (Homo sapiens, UniProt Q9UKP6); design: method as in ChEMBL database and others; details: antagonist; Table S1 benchmarking ligands; ref ChEMBL database and others; cited from earlier work
T1 construct: SNAP-tag; expressed in transfected cells; host or cells: 293A8 (HEK293A stably transfected with the UT receptor); inferred, the calcium-assay paragraph names no cells
T1 sequence (Q9UKP6 1-389): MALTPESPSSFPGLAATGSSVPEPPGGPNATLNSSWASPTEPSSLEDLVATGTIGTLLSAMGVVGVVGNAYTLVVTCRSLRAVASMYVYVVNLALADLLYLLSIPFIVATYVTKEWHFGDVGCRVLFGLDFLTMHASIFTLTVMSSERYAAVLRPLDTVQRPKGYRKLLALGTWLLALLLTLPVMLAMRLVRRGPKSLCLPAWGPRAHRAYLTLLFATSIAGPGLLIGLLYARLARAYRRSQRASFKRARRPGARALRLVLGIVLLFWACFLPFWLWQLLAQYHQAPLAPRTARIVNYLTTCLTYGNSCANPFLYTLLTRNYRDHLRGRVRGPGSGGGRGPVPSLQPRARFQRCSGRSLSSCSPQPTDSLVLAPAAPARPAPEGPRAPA

[2] = molecular target: T1, UT receptor; details: agonist; Table S1 benchmarking ligands; ref ChEMBL database and others; cited from earlier work

| SMILES | IC50 [1] [nM] | EC50 [2] |
| --- | --- | --- |
| CN(CC(=O)N1CCCCC1CN1CCCC1)c1ccc(Cl)c(Cl)c1 (stereo not shown) [CHEMBL254154] | 631 |  |
| CN(C)CCCOc1ccc(CN2CC[C@H](NC(=O)c3ccc(Cl)c(Cl)c3)C2)cc1 [CHEMBL366221] | 170 |  |
| NCCCC[C@@H]1NC(=O)[C@H](Cc2c[nH]c3ccccc23)NC(=O)[C@H](CO)NC(=O)CNC(=O)[C@@H]2CCCN2C(=O)[C@H](Cc2ccccc2)NC1=O [CHEMBL593663] (cyclo(FPGSWK)) |  | 10.1 nM |
| NCCCC[C@@H]1NC(=O)[C@H](Cc2c[nH]c3ccccc23)NC(=O)[C@H](Cc2ccccc2)NC(=O)CNC(=O)[C@@H]2CCCN2C(=O)[C@H](Cc2ccc(O)cc2)NC1=O [CHEMBL607809] (cyclo(FWKYPG)) |  | 6.94 nM |
| NCCCC[C@@H]1NC(=O)[C@H](Cc2c[nH]c3ccccc23)NC(=O)[C@H](Cc2ccc(O)cc2)NC(=O)CNC(=O)[C@@H]2CCCN2C(=O)[C@H](Cc2ccc(O)cc2)NC1=O [CHEMBL607810] (cyclo(GYWKYP)) |  | 12.6 nM |
| NCCCC[C@@H]1NC(=O)[C@H](Cc2c[nH]c3ccccc23)NC(=O)[C@H](Cc2ccccc2)NC(=O)CNC(=O)[C@@H]2CCCN2C(=O)[C@H](Cc2ccccc2)NC1=O [CHEMBL607811] (cyclo(FPGFWK)) |  | 13.2 nM |
| NCCCC[C@@H]1NC(=O)[C@H](Cc2c[nH]c3ccccc23)NC(=O)[C@H](Cc2ccc(O)cc2)NC(=O)CNC(=O)[C@@H]2CCCN2C(=O)[C@H](Cc2ccccc2)NC1=O [CHEMBL608097] (cyclo(FPGYWK)) |  | 75.7 nM |
| NCCCC[C@@H]1NC(=O)[C@H](Cc2c[nH]c3ccccc23)NC(=O)[C@H](Cc2ccccc2)NC(=O)CNC(=O)[C@@H]2CCCN2C(=O)[C@H](Cc2c[nH]c3ccccc23)NC1=O [CHEMBL608098] (cyclo(FWKWPG)) |  | 20.6 nM |
| NCCCC[C@@H]1NC(=O)[C@H](Cc2c[nH]c3ccccc23)NC(=O)[C@H](CO)NC(=O)CNC(=O)[C@@H]2CCCN2C(=O)[C@H](Cc2c[nH]c3ccccc23)NC1=O [CHEMBL608099] (cyclo(GSWKWP)) |  | 16.7 nM |
| Cc1cc2c(cc1C)C(=O)OC(CCN(C)C)(c1ccc(Cl)c(Cl)c1)C2 (stereo not shown) [CHEMBL1171808] |  | 51.3 nM |
| Cc1cc2c(cc1C)CC(CCN(C)C)(c1ccc3ccccc3c1)OC2 (stereo not shown) [CHEMBL1172223] |  | 263 nM |
| CN(C)CCC1(c2ccc(Cl)c(Cl)c2)Cc2ccccc2C(=O)O1 (stereo not shown) [CHEMBL1172763] |  | 676 nM |
| C=CCN(CC=C)c1ccc2c(c1)CC(CCN(C)C)(c1ccc(Cl)cc1)OC2=O (stereo not shown) [CHEMBL1173081] |  | 724 nM |
| CN(C)CCC1(c2ccc(Cl)cc2)Cc2ccccc2CO1 (stereo not shown) [CHEMBL1173172] |  | 501 nM |
| Cc1cc2c(cc1C)C(=O)OC(CCN(C)C)(c1ccc3ccccc3c1)C2 (stereo not shown) [CHEMBL1173399] |  | 148 nM |
| Cc1cc2c(cc1C)CC(CCN(C)C)(c1ccc(Cl)cc1)OC2 (stereo not shown) [CHEMBL1173492] |  | 692 nM |
| CSCC[C@H](NC(=O)CNC(=O)[C@@H](NC(=O)CNC(=O)[C@@H](NC(=O)[C@H](NC(=O)[C@H](CC(N)=O)NC(=O)[C@H](CCCNC(=N)N)NC(=O)[C@H](Cc1ccccc1)NC(=O)[C@@H](N)CO)C(C)(C)C)C(C)C)[C@@H](C)O)C(=O)N[C@@H](CCCCN)C(=O)N[C@@H](CCCCN)C(=O)N[C@H](C(=O)N[C@@H](CO)C(=O)N[C@@H](Cc1ccccc1)C(=O)N[C@@H](CCC(N)=O)C(=O)N[C@@H](CCCNC(=N)N)C(=O)N[C@@H](C)C(=O)N[C@@H](CCCCN)C(=O)N[C@@H](CO)C(=O)O)[C@@H](C)O [CHEMBL1627325] (H-SFRN[dTle]VGTGMKKTSFQRAKS-OH) |  | 3.47 nM |
| CC(C)[C@H](NC(=O)[C@H](CS)NC(=O)[C@H](Cc1ccc(O)cc1)NC(=O)[C@H](CCCCN)NC(=O)[C@H](Cc1c[nH]c2ccccc12)NC(=O)[C@H](Cc1ccccc1)NC(=O)[C@H](C)NC(=O)[C@H](CC(=O)O)NC(=O)[C@H]1CCCN1C(=O)[C@@H](NC(=O)[C@@H](N)CCC(=O)O)[C@@H](C)O)C(=O)O [CHEMBL2372895] (H-ET[dP]DAFWKYCV-OH) |  | 233 nM |
| CC(C)[C@H](NC(=O)[C@H](CS)NC(=O)[C@H](Cc1ccc(O)cc1)NC(=O)[C@H](CCCCN)NC(=O)[C@H](Cc1c[nH]c2ccccc12)NC(=O)[C@H](Cc1ccccc1)NC(=O)[C@H](CS)NC(=O)[C@H](C)NC(=O)[C@H]1CCCN1C(=O)[C@@H](NC(=O)[C@@H](N)CCC(=O)O)[C@@H](C)O)C(=O)O [CHEMBL2372896] |  | 2.7 nM |
| CC(C)[C@H](NC(=O)[C@H](CS)NC(=O)[C@H](Cc1ccc(O)cc1)NC(=O)[C@H](CCCCN)NC(=O)[C@H](Cc1c[nH]c2ccccc12)NC(=O)[C@H](Cc1ccccc1)NC(=O)[C@H](CS)NC(=O)[C@H](CC(=O)O)NC(=O)[C@H](C)NC(=O)[C@@H](NC(=O)[C@@H](N)CCC(=O)O)[C@@H](C)O)C(=O)O [CHEMBL2372897] (H-ETADCFWKYCV-OH) |  | 1.9 nM |
| CC(C)[C@H](NC(=O)[C@H](CS)NC(=O)[C@H](Cc1ccc(O)cc1)NC(=O)[C@H](CCCCN)NC(=O)[C@H](Cc1c[nH]c2ccccc12)NC(=O)[C@H](Cc1ccccc1)NC(=O)[C@H](CS)NC(=O)[C@H](CC(=O)O)NC(=O)[C@H]1CCCN1C(=O)[C@@H](NC(=O)[C@H](C)N)[C@@H](C)O)C(=O)O [CHEMBL2372899] (H-AT[dP]DCFWKYCV-OH) |  | 1.8 nM |
| CC(C)[C@H](NC(=O)[C@H](CS)NC(=O)[C@H](Cc1ccc(O)cc1)NC(=O)[C@H](CCCCN)NC(=O)[C@H](Cc1c[nH]c2ccccc12)NC(=O)[C@H](C)NC(=O)[C@H](CS)NC(=O)[C@H](CC(=O)O)NC(=O)[C@H]1CCCN1C(=O)[C@@H](NC(=O)[C@@H](N)CCC(=O)O)[C@@H](C)O)C(=O)O [CHEMBL2372901] (H-ET[dP]DCAWKYCV-OH) |  | 5.7 nM |
| CC(C)[C@H](NC(=O)[C@H](CS)NC(=O)[C@H](Cc1ccc(O)cc1)NC(=O)[C@H](CCCCN)NC(=O)[C@H](Cc1c[nH]c2ccccc12)NC(=O)[C@H](Cc1ccccc1)NC(=O)[C@H](CS)NC(=O)[C@H](CC(=O)O)NC(=O)[C@H]1CCCN1C(=O)[C@H](C)NC(=O)[C@@H](N)CCC(=O)O)C(=O)O [CHEMBL2372902] (H-EA[dP]DCFWKYCV-OH) |  | 3.3 nM |
| CC(C)[C@H](NC(=O)[C@H](CS)NC(=O)[C@H](C)NC(=O)[C@H](CCCCN)NC(=O)[C@H](Cc1c[nH]c2ccccc12)NC(=O)[C@H](Cc1ccccc1)NC(=O)[C@H](CS)NC(=O)[C@H](CC(=O)O)NC(=O)[C@H]1CCCN1C(=O)[C@@H](NC(=O)[C@@H](N)CCC(=O)O)[C@@H](C)O)C(=O)O [CHEMBL2372903] (H-ET[dP]DCFWKACV-OH) |  | 193 nM |
| C[C@H](NC(=O)[C@H](CS)NC(=O)[C@H](Cc1ccc(O)cc1)NC(=O)[C@H](CCCCN)NC(=O)[C@H](Cc1c[nH]c2ccccc12)NC(=O)[C@H](Cc1ccccc1)NC(=O)[C@H](CS)NC(=O)[C@H](CC(=O)O)NC(=O)[C@H]1CCCN1C(=O)[C@@H](NC(=O)[C@@H](N)CCC(=O)O)[C@@H](C)O)C(=O)O [CHEMBL2372907] (H-ET[dP]DCFWKYCA-OH) |  | 3.2 nM |
| COc1ccc(/C=C/C2=NN(CCCCN)C(=O)N(Cc3ccc(-c4ccccc4)cc3)c3ccccc32)cc1 [CHEMBL4071437] |  | 7.08 nM and 8.51 nM |
| NCCCN1N=C(CCc2nc3ccccc3s2)c2ccccc2N(Cc2ccc3ccccc3c2)C1=O [CHEMBL4076150] |  | 6.17 nM and 10.7 nM |
| CC(C)[C@H](NC(=O)[C@@H]1CSSC[C@H](NC(=O)[C@@H](N)CC(=O)O)C(=O)N[C@@H](Cc2ccc(I)cc2)C(=O)N[C@@H](Cc2c[nH]c3ccccc23)C(=O)N[C@@H](CCCCN)C(=O)N[C@@H](Cc2ccc(O)cc2)C(=O)N1)C(=O)O [CHEMBL4205274] (H-DC[Phe(4-I)]WKYCV-OH; disulfide 2-7) |  | 191 nM |
